Laboratory results published in patent publication US4206088A, “Solid conducting agent” (priority 1978, dated 1980).
Counter-ions that a name gives are not always drawn.

How the values were obtained:
[1] = as determined at 20° C.; cited from earlier work
volume resistivity = format: physicochemical; settings: 23° C., 50% relative humidity
Description: In the present invention, it is very important that the above-mentioned protonically conductive solid should be adsorbed and supported on a finely divided inorganic solid acid.
Incidentally, in this and subsequent Examples, all the values of the volume resistivity were those as measured at a temperature of 23° C. and a relative humidity of 50%, unless otherwise indicated.

Structure (SMILES)	First Stage Base Dissociation Constant (pKb) [1]	volume resistivity (volume resistivity)
c1ccc(-c2ccccn2)nc1 [2,2'-Bis-pyridine]	9.88	–
Nc1ccncc1 [4-Aminopyridine]	4.83	–
C=CCN [Allylamine]	3.51	–
CCCCCN [Amylamine]	3.37	–
NC1CCCCC1 [Cyclohexylamine]	3.36	–
CCNCC [Diethylamine]	3.02	–
CNC [Dimethylamine]	3.13	–
CCN [Ethylamine]	3.37	–
NCCN [Ethylenediamine sulfate]	–	2.74×10^8 .OMEGA.-cm
CCNN [Ethylhydrazine]	6.29	–
N=C(N)N [Guanidine sulfate]	–	6.69×10^7 .OMEGA.-cm
C1N2CN3CN1CN(C2)C3 [Hexamethylene-tetraamine succinate]	–	2.05×10^11 .OMEGA.-cm
NN [Hydrazine]	6.07	–
NO [Hydroxylamine]	8.03	–
CN [Methylamine]	3.38	–
CNN [Methylhydrazine]	6.13	–
N=C(N)Nc1ccccc1 [Phenylguanidine]	3.23	–
C1CNCCN1.O=S(=O)(O)O [Piperazine sulfate]	–	9.35×10^7 .OMEGA.-cm
C1CCNCC1 [Piperidine]	2.78	–
C1CCNC1 [Pyrrolidine]	2.73	–
CN(C)C [Trimethylamine]	4.24	–
C1CNC1 [Trimethylene-imine]	2.71	–
C1CCNCC1.O=S(=O)(O)O [piperidine sulfate]	–	3.54×10^7 .OMEGA.-cm
